Reference: EPA's ToxRefDB 2

What was measured:
rat [1] = conditions: Sub-acute repeat dose toxicity, sprague dawley, Oral, Gavage/Intubation, dose end: 28 day, group: systemic
dog [2] = conditions: Sub-acute repeat dose toxicity; beagle; Oral; Gavage/Intubation; dose end: 30 day; group: systemic; systemic / in life observation / clinical signs / emesis + systemic / clinical chemistry / [other] / [other] + systemic / clinical chemistry…
rat [3] = conditions: Sub-acute repeat dose toxicity; sprague dawley; Oral; Gavage/Intubation; dose end: 10 day; group: systemic; systemic / clinical chemistry / sorbitol dehydrogenase / sorbitol dehydrogenase
dog [4] = conditions: Sub-acute repeat dose toxicity, beagle, Oral, Gavage/Intubation, dose end: 10 day, group: systemic
rabbit [5] = conditions: Prenatal developmental toxicity study, dutch, Oral, Gavage/Intubation, dose end: 27 GD
mouse [6] = conditions: Subchronic oral toxicity in rodents, cd1, Feed, dose end: 13 week
rat [7] = conditions: Subchronic oral toxicity in rodents, fischer, Feed, dose end: 13 week, group: systemic, systemic / clinical chemistry / cholesterol / cholesterol + systemic / organ weight / kidney / relative to body weight + systemic / organ …
rat [8] = conditions: Combined chronic toxicity/carcinogenicity; fischer; Oral; Feed; dose end: 25 month; group: systemic; systemic / clinical chemistry / creatinine / creatinine + systemic / clinical chemistry / gamma glutamyl transpeptides (gtp) / gamma …
rat [9] = conditions: Subchronic oral toxicity in rodents, sprague dawley, Feed, dose end: 90 day, group: systemic, systemic / organ weight / liver / absolute + systemic / organ weight / liver / relative to body weight + systemic / organ weight / thyroid …
dog [10] = conditions: Chronic toxicity; beagle; Oral; Feed; dose end: 52 week; group: systemic; systemic / clinical chemistry / alkaline phosphatase (alp/alk) / alkaline phosphatase (alp/alk) + systemic / organ weight / liver / absolute…
rat [11] = conditions: Combined chronic toxicity/carcinogenicity, sprague dawley, Oral, Feed, dose end: 26 month, group: systemic
dog [12] = conditions: Chronic toxicity, beagle, Oral, Capsule, dose end: 52 week, group: systemic
rat [13] = conditions: Subchronic oral toxicity in rodents, other, Feed, dose end: 90 day, group: systemic
mouse [14] = conditions: Carcinogenicity, cd1, Oral, Feed, dose end: 78 week, group: systemic
dog [15] = conditions: Subchronic oral toxicity in nonrodent, beagle, Capsule, dose end: 96 day, group: systemic
rat [16] = conditions: Subchronic oral toxicity in rodents, other, Feed, dose end: 90 day, group: systemic; remark: listed apart in the source
mouse [17] = conditions: Subchronic oral toxicity in rodents, cd1, Feed, dose end: 90 day, group: systemic
rat [18] = conditions: Combined chronic toxicity/carcinogenicity, fischer, Oral, Feed, dose end: 2 year
mouse [19] = conditions: Combined chronic toxicity/carcinogenicity, cd1, Oral, Feed, dose end: 24 month
rabbit [20] = conditions: Prenatal developmental toxicity study, Dutch, Oral, Gavage/Intubation, dose end: 18 GD
rat [21] = conditions: Multigenerational reproductive toxicity study, sprague dawley, Oral, Feed, dose end: 2 generation
rat [22] = conditions: Combined chronic toxicity/carcinogenicity, fischer, Oral, Feed, dose end: 106 week
[23] = systemic / clinical chemistry / cholesterol / cholesterol + systemic / clinical chemistry / sorbitol dehydrogenase / sorbitol dehydrogenase…
[24] = systemic / organ weight / liver / absolute
[25] = systemic / in life observation / clinical signs / arrhythmia
[26] = systemic / in life observation / clinical signs / arrhythmia + systemic / in life observation / clinical signs / convulsions
[27] = group: developmental, systemic / in life observation / body weight / fetal weight
[28] = group: maternal, reproductive / reproductive performance / aborted / aborted + systemic / in life observation / body weight / body weight gain + systemic / …
[29] = group: cholinesterase, cholinesterase / cholinesterase / cholinesterase / brain cholinesterase (che)
[30] = group: systemic, systemic / organ weight / liver / absolute + systemic / organ weight / liver / relative to body weight + systemic / organ weight / liver / …
[31] = systemic / pathology microscopic / kidney / nephropathy + systemic / pathology microscopic / liver / degeneration
[32] = systemic / pathology microscopic / kidney / nephropathy + systemic / pathology microscopic / liver / degeneration + systemic / pathology …
[33] = systemic / in life observation / body weight / body weight gain + systemic / in life observation / food consumption / food efficiency
[34] = systemic / in life observation / clinical signs / abdominogenital staining + systemic / in life observation / clinical signs / urinary …
[35] = systemic / in life observation / clinical signs / abdominogenital staining + systemic / in life observation / water consumption / water …
[36] = systemic / hematology / erythrocyte (rbc) count differential / erythrocyte (rbc) + systemic / hematology / hematocrit (hct) / hematocrit (…
[37] = systemic / pathology microscopic / liver / vacuolization
[38] = systemic / in life observation / body weight / body weight gain + systemic / in life observation / food consumption / food efficiency + …
[39] = systemic / organ weight / spleen / relative to body weight
[40] = systemic / pathology microscopic / liver / vacuolization + systemic / hematology / erythrocyte (rbc) count differential / erythrocyte (rbc…
[41] = group: cholinesterase, cholinesterase / cholinesterase / cholinesterase / brain cholinesterase (che) + cholinesterase / cholinesterase / cholinesterase / …
[42] = group: systemic, systemic / in life observation / body weight / body weight + systemic / in life observation / body weight / body weight gain + systemic / …
[43] = group: systemic, systemic / in life observation / clinical signs / urine staining - perineum
[44] = group: systemic, systemic / in life observation / clinical signs / vaginal discharge + systemic / in life observation / clinical signs / urine staining - …
[45] = group: cholinesterase, cholinesterase / cholinesterase / cholinesterase / erythrocyte cholinesterase (che) + cholinesterase / cholinesterase / cholinesterase / …
[46] = group: developmental, developmental / developmental malformation / bone / delayed ossification + systemic / in life observation / body weight / fetal weight
[47] = group: maternal, reproductive / reproductive performance / resorptions / resorptions + reproductive / reproductive performance / aborted / aborted + systemic…
[48] = group: cholinesterase, cholinesterase / cholinesterase / cholinesterase / brain cholinesterase (che) + cholinesterase / cholinesterase / cholinesterase / plasma …
[49] = group: offspring, systemic / in life observation / body weight / offspring (pup) weight + systemic / pathology microscopic / kidney / dilatation
[50] = group: parental, systemic / pathology gross / lung / discolored + systemic / pathology microscopic / lung / hyperplasia + systemic / pathology microscopic / …
[51] = group: reproductive, reproductive / offspring survival early / birth index / birth index
[52] = group: cholinesterase, cholinesterase / cholinesterase / cholinesterase / plasma cholinesterase (che) + cholinesterase / cholinesterase / cholinesterase / brain …
[53] = group: systemic, systemic / hematology / hematocrit (hct) / hematocrit (hct) + systemic / hematology / mean corpuscular (cell) volume (mcv) / mean …

Cc1nc(C)nc(N2C[C@@H](C)N(c3ccnc([C@@H](C)O)n3)[C@@H](C)C2)n1
LOAEL (rat [1]; [23]): > 20 mg/kg/day
NOAEL (rat [1]; [23]): ≥ 20 mg/kg/day
LEL (rat [1]; [24]): 2 mg/kg/day
NEL (rat [1]; [24]): < 2 mg/kg/day
LEL (dog [2]): 6 mg/kg/day
LOAEL (dog [2]): > 6 mg/kg/day
NEL (dog [2]): < 6 mg/kg/day
NOAEL (dog [2]): ≥ 6 mg/kg/day
LEL (rat [3]): 1 mg/kg/day
LOAEL (rat [3]): > 10 mg/kg/day
NEL (rat [3]): < 1 mg/kg/day
NOAEL (rat [3]): ≥ 10 mg/kg/day
LEL (dog [4]; [25]): 1 mg/kg/day
NEL (dog [4]; [25]): < 1 mg/kg/day
LOAEL (dog [4]; [26]): > 6 mg/kg/day
NOAEL (dog [4]; [26]): ≥ 6 mg/kg/day

CCCCOCN(C(=O)CCl)c1c(CC)cccc1CC [Butachlor]
LEL (rabbit [5]; [27]): 150 mg/kg/day
LOAEL (rabbit [5]; [27]): 150 mg/kg/day
NEL (rabbit [5]; [27]): 50 mg/kg/day
NOAEL (rabbit [5]; [27]): 50 mg/kg/day
LEL (rabbit [5]; [28]): 150 mg/kg/day
LOAEL (rabbit [5]; [28]): 150 mg/kg/day
NEL (rabbit [5]; [28]): 50 mg/kg/day
NOAEL (rabbit [5]; [28]): 50 mg/kg/day
LEL (mouse [6]; [29]): 150 mg/kg/day
LOAEL (mouse [6]; [29]): > 900 mg/kg/day
NEL (mouse [6]; [29]): < 150 mg/kg/day
NOAEL (mouse [6]; [29]): ≥ 900 mg/kg/day
LEL (mouse [6]; [30]): 150 mg/kg/day
LOAEL (mouse [6]; [30]): 150 mg/kg/day
NEL (mouse [6]; [30]): < 150 mg/kg/day
NOAEL (mouse [6]; [30]): < 150 mg/kg/day
LEL (rat [7]): 58.7 mg/kg/day
LOAEL (rat [7]): 58.7 mg/kg/day
NEL (rat [7]): 17.5 mg/kg/day
NOAEL (rat [7]): 17.5 mg/kg/day
LEL (rat [8]): 37.1 mg/kg/day
LOAEL (rat [8]): 37.1 mg/kg/day
NEL (rat [8]): 3.65 mg/kg/day
NOAEL (rat [8]): 3.65 mg/kg/day
LEL (rat [9]): 50 mg/kg/day
LOAEL (rat [9]): 50 mg/kg/day
NEL (rat [9]): < 50 mg/kg/day
NOAEL (rat [9]): < 50 mg/kg/day
LEL (dog [10]): 25 mg/kg/day
LOAEL (dog [10]): 25 mg/kg/day
NEL (dog [10]): 5 mg/kg/day
NOAEL (dog [10]): 5 mg/kg/day
LOAEL (rat [11]; [31]): 4.5 mg/kg/day
NOAEL (rat [11]; [31]): < 4.5 mg/kg/day
LEL (rat [11]; [32]): 4.5 mg/kg/day
NEL (rat [11]; [32]): < 4.5 mg/kg/day

CCOC(=O)COc1cc(-n2ncc(C(F)(F)F)c(C)c2=O)c(F)cc1Cl [Flufenpyr-ethyl]
LOAEL (dog [12]; systemic / in life observation / body weight / body weight gain): 1000 mg/kg/day
LEL (dog [12]; [33]): 200 mg/kg/day
NEL (dog [12]; [33]): 50 mg/kg/day
NOAEL (dog [12]; [33]): 200 mg/kg/day
LOAEL (rat [13]; [34]): 595 mg/kg/day
NOAEL (rat [13]; [34]): 55 mg/kg/day
LEL (rat [13]; [35]): 55 mg/kg/day
NEL (rat [13]; [35]): < 55 mg/kg/day
LOAEL (mouse [14]; [36]): 402 mg/kg/day
NOAEL (mouse [14]; [36]): 39.9 mg/kg/day
LEL (mouse [14]; [37]): 397 mg/kg/day
NEL (mouse [14]; [37]): 43.5 mg/kg/day
LOAEL (dog [15]; [33]): 1000 mg/kg/day
LEL (dog [15]; [38]): 100 mg/kg/day
NEL (dog [15]; [38]): < 100 mg/kg/day
NOAEL (dog [15]; [38]): 300 mg/kg/day
LOAEL (rat [16]; systemic / in life observation / clinical signs / body surface staining + systemic / in life observation / clinical signs / urinary …): 414 mg/kg/day
LEL (rat [16]; [39]): 39 mg/kg/day
NEL (rat [16]; [39]): < 39 mg/kg/day
NOAEL (rat [16]; systemic / organ weight / spleen / relative to body weight + systemic / in life observation / clinical signs / body surface staining + …): 134 mg/kg/day
LEL (mouse [17]; [37]): 395 mg/kg/day
LOAEL (mouse [17]; [37]): 395 mg/kg/day
NEL (mouse [17]; [40]): 128 mg/kg/day
NOAEL (mouse [17]; [40]): 128 mg/kg/day

COP(=O)(OC)C(O)C(Cl)(Cl)Cl (stereo not drawn) [Trichlorfon]
LEL (rat [18]; [41]): 129 mg/kg/day
LOAEL (rat [18]; [41]): 129 mg/kg/day
NEL (rat [18]; [41]): < 129 mg/kg/day
NOAEL (rat [18]; [41]): < 129 mg/kg/day
LEL (rat [18]; [42]): 129 mg/kg/day
LOAEL (rat [18]; [42]): 129 mg/kg/day
NEL (rat [18]; [42]): < 129 mg/kg/day
NOAEL (rat [18]; [42]): < 129 mg/kg/day
LEL (mouse [19]; [41]): 45 mg/kg/day
LOAEL (mouse [19]; [41]): 45 mg/kg/day
NEL (mouse [19]; [41]): < 45 mg/kg/day
NOAEL (mouse [19]; [41]): < 45 mg/kg/day
LEL (mouse [19]; [43]): 45 mg/kg/day
NEL (mouse [19]; [43]): < 45 mg/kg/day
LOAEL (mouse [19]; [44]): > 405 mg/kg/day
NOAEL (mouse [19]; [44]): ≥ 405 mg/kg/day
LEL (rabbit [20]; [45]): 35 mg/kg/day
LOAEL (rabbit [20]; [45]): 35 mg/kg/day
NEL (rabbit [20]; [45]): 10 mg/kg/day
NOAEL (rabbit [20]; [45]): 10 mg/kg/day
LEL (rabbit [20]; [46]): 110 mg/kg/day
LOAEL (rabbit [20]; [46]): 110 mg/kg/day
NEL (rabbit [20]; [46]): 35 mg/kg/day
NOAEL (rabbit [20]; [46]): 35 mg/kg/day
LEL (rabbit [20]; group: maternal, reproductive / reproductive performance / aborted / aborted + systemic / in life observation / clinical signs / altered breathing rate + …): 35 mg/kg/day
LOAEL (rabbit [20]; group: maternal, reproductive / reproductive performance / resorptions / resorptions): 110 mg/kg/day
NEL (rabbit [20]; [47]): 10 mg/kg/day
NOAEL (rabbit [20]; [47]): 35 mg/kg/day
LEL (rat [21]; [48]): 15 mg/kg/day
LOAEL (rat [21]; [48]): 15 mg/kg/day
NEL (rat [21]; [48]): < 15 mg/kg/day
NOAEL (rat [21]; [48]): < 15 mg/kg/day
LEL (rat [21]; [49]): 175 mg/kg/day
LOAEL (rat [21]; [49]): 175 mg/kg/day
NEL (rat [21]; [49]): 50 mg/kg/day
NOAEL (rat [21]; [49]): 50 mg/kg/day
LEL (rat [21]; [50]): 175 mg/kg/day
LOAEL (rat [21]; [50]): > 175 mg/kg/day
NEL (rat [21]; [50]): 50 mg/kg/day
NOAEL (rat [21]; [50]): ≥ 175 mg/kg/day
LOAEL (rat [21]; [51]): 175 mg/kg/day
NEL (rat [21]; [51]): 50 mg/kg/day
NOAEL (rat [21]; [51]): 50 mg/kg/day
LEL (rat [21]; group: reproductive, reproductive / offspring survival early / birth index / birth index + reproductive / offspring survival early / litter size / litter size): 175 mg/kg/day
LEL (rat [22]; [52]): 15 mg/kg/day
LOAEL (rat [22]; [52]): 15 mg/kg/day
NEL (rat [22]; [52]): 5 mg/kg/day
NOAEL (rat [22]; [52]): 5 mg/kg/day
LEL (rat [22]; [53]): 15 mg/kg/day
LOAEL (rat [22]; [53]): 15 mg/kg/day
NEL (rat [22]; [53]): 5 mg/kg/day
NOAEL (rat [22]; [53]): 5 mg/kg/day
